Assay results: patent US10208019B2, “GLP-1 receptor agonists and uses thereof” (Pfizer Inc., priority 2016, dated 2019)
Where two headings read alike, the source gives them in different places.

How the values were obtained:
human GLP-1R [1] = target: human GLP-1R (Homo sapiens (Human), UniProt P43220, L260F); test: CHO GLP-1R Clone C6—Assay 2: HTRF cAMP cell-based functional agonist assay (low GLP-1R density); details: for EC50: CHO GLP-1R Clone C6, cAMP HTRF, geometric mean; for Emax: read-out: Assay 2 Emax (%)
Chain of human GLP-1R (Homo sapiens (Human), UniProt P43220, L260F) (P43220 24-463 L260F): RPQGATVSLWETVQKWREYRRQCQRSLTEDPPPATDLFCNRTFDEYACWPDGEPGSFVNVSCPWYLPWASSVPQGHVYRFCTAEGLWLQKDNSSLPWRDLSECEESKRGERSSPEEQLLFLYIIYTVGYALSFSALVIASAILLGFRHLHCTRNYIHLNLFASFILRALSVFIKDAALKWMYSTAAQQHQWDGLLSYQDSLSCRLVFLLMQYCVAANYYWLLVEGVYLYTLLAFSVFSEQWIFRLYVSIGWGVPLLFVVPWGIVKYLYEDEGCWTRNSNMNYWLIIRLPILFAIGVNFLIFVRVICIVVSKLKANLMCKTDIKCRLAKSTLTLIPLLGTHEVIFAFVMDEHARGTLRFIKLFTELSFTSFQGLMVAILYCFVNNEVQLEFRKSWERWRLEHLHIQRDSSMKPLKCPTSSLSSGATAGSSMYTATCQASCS
Description: GLP-1R-mediated agonist activity was determined with a cell-based functional assay utilizing an HTRF (Homogeneous Time-Resolved Fluorescence) cAMP detection kit (cAMP HI Range Assay Kit; Cis Bio cat #62AM6PEJ) that measures cAMP levels in the cell. The method is a competitive immunoassay between native cAMP produced by the cells and exogenous cAMP labeled with the dye d2. The tracer binding is visualized by a mAb anti-cAMP labeled with Cryptate. The specific signal (i.e. energy transfer) is inversely proportional to the concentration of cAMP in either a standard or an experimental sample.
The human GLP-1R coding sequence (NCBI Reference Sequence NP_002053.3, including naturally-occurring variant Leu260Phe) was subcloned into pcDNA5-FRT-TO and a clonal CHO cell line stably expressing a low receptor density was isolated using the Flp-In™ T-Rex™ System, as described by the manufacturer (ThermoFisher).
Cells were removed from cryopreservation, re-suspended in 40 mL of Dulbecco's Phosphate Buffered Saline (DPBS-Lonza Cat #17-512Q) and centrifuged at 800×g for 5 min at 22° C. The DPBS was aspirated, and the cell pellet was re-suspended in 10 mL of complete growth medium (DMEM:F12 1:1 Mixture with HEPES, L-Gln, 500 mL (DMEM/F12 Lonza Cat #12-719F), 10% heat inactivated fetal bovine serum (Gibco Cat #16140-071), 5 mL of 100× Pen-Strep (Gibco Cat #15140-122), 5 mL of 100× L-Glutamine (Gibco Cat #25030-081), 700 μg/mL Hygromycin (Invitrogen Cat #10687010) and 15 μg/mL Blasticidin (Gibco Cat #R21001). A 1 mL sample of the cell suspension in growth media was counted on a Becton Dickinson ViCell to determine cell viability and cell count per mL. The remaining cell suspension was then adjusted with growth media to deliver 1600 viable cells per well using a Matrix Combi Multidrop reagent dispenser, and the cells were dispensed into a white 384 well tissue culture treated assay plate (Corning 3570). The assay plate was then incubated for 48 h at 37° C. in a humidified environment (95% O2, 5% CO2)
Varying concentrations of each compound to be tested (in DMSO) were diluted in assay buffer [HBSS with Calcium/Magnesium (Lonza/BioWhittaker cat #10-527F)/0.1% BSA (Sigma Aldrich cat #A7409-1L)/20 mM HEPES (Lonza/BioWhittaker cat #17-737E)] containing 100 μM 3-isobutyl-1-methylxanthin (IBMX; Sigma cat #15879). The final DMSO concentration in the compound/assay buffer mixture is 1%.
After 48 h, the growth media was removed from the assay plate wells, and the cells were treated with 20 μL of the serially diluted compound in assay buffer for 30 min at 37° C. in a humidified environment (95% O2, 5% CO2). Following the 30 min incubation, 10 μL of labeled d2 cAMP and 10 μL of anti-cAMP antibody (both diluted 1:20 in cell lysis buffer; as described in the manufacturer's assay protocol) were added to each well of the assay plate. The plates were then incubated at room temperature and after 60 minutes, changes in the HTRF signal were read with an Envision 2104 multi-label plate reader using excitation of 330 nm and emissions of 615 and 665 nm. Raw data were converted to nM cAMP by interpolation from a cAMP standard curve (as described in the manufacturer's assay protocol) and the percent effect was determined relative to a saturating concentration of the full agonist GLP-1 (1 μM) included on each plate. EC50 determinations were made from agonist dose response curves analyzed with a curve fitting program using a 4-parameter logistic dose response equation.

human GLP-1R [2] = target: human GLP-1R (Homo sapiens, UniProt P43220, G168S); test: CHO GLP-1R Clone H6—Assay 1: HTRF cAMP cell-based functional agonist assay (high GLP-1R density); details: for EC50: CHO GLP-1R Clone H6, cAMP HTRF, geometric mean; for Emax: read-out: Assay 1 Emax (%), CHO GLP-1R Clone H6
Chain of human GLP-1R (Homo sapiens, UniProt P43220, G168S) (P43220 24-463 G168S limits assumed): as the sequence (P43220 24-463 L260F) above, with G145S, F237L counted along it
Description: GLP-1R-mediated agonist activity was determined with a cell-based functional assay utilizing an HTRF (Homogeneous Time-Resolved Fluorescence) cAMP detection kit (cAMP HI Range Assay Kit; CisBio cat #62AM6PEJ) that measures cAMP levels in the cell. The method is a competitive immunoassay between native cAMP produced by the cells and exogenous cAMP labeled with the dye d2. The tracer binding is visualized by a mAb anti-cAMP labeled with Cryptate. The specific signal (i.e. energy transfer) is inversely proportional to the concentration of cAMP in either standard or experimental sample.
The human GLP-1R coding sequence (NCBI Reference Sequence NP_002053.3, including naturally-occurring variant Gly168Ser) was subcloned into pcDNA3 (Invitrogen) and a cell line stably expressing the receptor was isolated (designated Clone H6).
Cells were removed from cryopreservation, re-suspended in 40 mL of Dulbecco's Phosphate Buffered Saline (DPBS-Lonza Cat #17-512Q) and centrifuged at 800×g for 5 min at 22° C. The cell pellet was then re-suspended in 10 mL of growth medium [DMEM/F12 1:1 Mixture with HEPES, L-Gln, 500 mL (DMEM/F12 Lonza Cat #12-719F), 10% heat inactivated fetal bovine serum (Gibco Cat #16140-071), 5 mL of 100× Pen-Strep (Gibco Cat #15140-122), 5 mL of 100× L-Glutamine (Gibco Cat #25030-081) and 500 μg/mL Geneticin (G418) (Invitrogen #10131035)]. A 1 mL sample of the cell suspension in growth media was counted on a Becton Dickinson ViCell to determine cell viability and cell count per mL. The remaining cell suspension was then adjusted with growth media to deliver 2000 viable cells per well using a Matrix Combi Multidrop reagent dispenser, and the cells were dispensed into a white 384 well tissue culture treated assay plate (Corning 3570). The assay plate was then incubated for 48 hours at 37° C. in a humidified environment in 5% carbon dioxide.
Varying concentrations of each compound to be tested (in DMSO) were diluted in assay buffer (HBSS with Calcium/Magnesium (Lonza/BioWhittaker cat #10-527F)/0.1% BSA (Sigma Aldrich cat #A7409-1L)/20 mM HEPES (Lonza/BioWhiftaker cat #17-737E) containing 100 μM 3-isobutyl-1-methylxanthin (IBMX; Sigma cat #15879). The final DMSO concentration is 1%.
After 48 hours, the growth media was removed from the assay plate wells, and the cells were treated with 20 μL of the serially diluted compound in assay buffer for 30 minutes at 37° C. in a humidified environment in 5% carbon dioxide. Following the 30 minute incubation, 10 μL of labeled d2 cAMP and 10 μL of anti-cAMP antibody (both diluted 1:20 in cell lysis buffer; as described in the manufacturer's assay protocol) were added to each well of the assay plate. The plates were then incubated at room temperature and after 60 minutes, changes in the HTRF signal were read with an Envision 2104 multi-label plate reader using excitation of 330 nm and emissions of 615 and 665 nm. Raw data were converted to nM cAMP by interpolation from a cAMP standard curve (as described in the manufacturer's assay protocol) and the percent effect was determined relative to a saturating concentration of the full agonist GLP-17-36 (1 μM) included on each plate. EC50 determinations were made from agonist dose-response curves analyzed with a curve fitting program using a 4-parameter logistic dose response equation.

[3] = CHO GLP-1R Clone C6, relative to saturating concentration of full agonist GLP-1 (1 μM), arithmetic mean
[4] = relative to saturating concentration of full agonist GLP-1 (1 μM), arithmetic mean

SMILES	EC50 (human GLP-1R [1]) [nM]	Emax (human GLP-1R [1]; [3]) [%]	EC50 (human GLP-1R [2]; read-out: Assay 1 EC50) [nM]	Emax (human GLP-1R [2]; [4]) [%]	Assay 2 Emax (%) (human GLP-1R [1]; [3])	Assay 1 Emax (%) (human GLP-1R [2]; CHO GLP-1R Clone H6, relative to saturating concentration of full agonist GLP-1 (1 μM), arithmetic mean)	EC50 (human GLP-1R [2]; Assay 1 EC50 (nM)) [nM]
Cc1noc(CCn2c(CN3CCC(c4cccc(OCc5ccc(Cl)cc5F)n4)CC3)nc3ccc(C(=O)O)cc32)n1 [Example 11A-29, 2-[(4-{6-[(4-chloro-2-fluorobenzyl)oxy]pyridin-2-yl}piperidin-1-yl)methyl]-1-[2-(3-methyl-1,2,4-oxadiazol-5-yl)ethyl]-1H-benzim idazole-6-carboxylic acid]	1700	99	55	71			
Cc1ccn(CCn2c(CN3CCC(c4cccc(OCc5ccc(Cl)cc5F)n4)CC3)nc3ccc(C(=O)O)cc32)n1 [Example 11A-31, 2-[(4-{6-[(4-chloro-2-fluorobenzyl)oxy]pyridin-2-yl}piperidin-1-yl)methyl]-1-[2-(3-methyl-1H-pyrazol-1-yl)ethyl]-1H-benzimidazole-6-carboxylic acid]	1500	81	72	76			
Cn1ncnc1Cn1c(CN2CCC(c3cccc(OCc4ccc(Cl)cc4F)n3)CC2)nc2ccc(C(=O)O)cc21 [Example 11A-33, 2-[(4-{6-[(4-chloro-2-fluorobenzyl)oxy]pyridin-2-yl}piperidin-1-yl)methyl]-1-[(1-methyl-1H-1,2,4-triazol-5yl)methyl]-1H-benzimidazole-6-carboxylic acid]	1400	94	96	86			
O=C(O)c1ccc2nc(CN3CCC(c4cccc(OCc5ccc(Cl)cc5F)n4)CC3)n(Cc3ccon3)c2c1 [Example 11A-69, 2-[(4-{6-[(4-chloro-2-fluorobenzyl)oxy]pyridin-2-yl}piperidin-1-yl)methyl]-1-(1,2-oxazol-3-ylmethyl)-1H-benzimidazole-6-carboxylic acid]	21	84	5.3	76			
O=C(O)c1ccc2nc(CN3CCC(c4cccc(OCc5ccc(Cl)cc5F)n4)CC3)n(CCC(F)(F)F)c2c1 [Example 11A-73, 2-[(4-{6-[(4-chloro-2-fluorobenzyl)oxy]pyridin-2-yl}piperidin-1-yl)methyl]-1-(3,3,3-trifluoropropyl)-1H-benzimidazole-6-carboxylic acid]	5300	80	150	68			
CC[C@H]1CN(c2cccc(OCc3ccc(Cl)cc3F)n2)CCN1Cc1nc2ccc(C(=O)O)cc2n1CCOC [Example 12A-07, 2-{[(2S)-4-{6-[(4-chloro-2-fluorobenzyl)oxy]pyridin-2-yl}-2-ethylpiperazin-1-yl]methyl}-1-(2-methoxyethyl)-1H-benzimidazole-6-carboxylic acid]	1200	83	37	69			
COCCn1c(CN2CCN(c3cccc(OCc4ccc(C#N)cc4)n3)C[C@@H]2C)nc2ccc(C(=O)O)cc21 [Example 12A-08, 2-{[(2S)-4-{6-[(4-cyanobenzyl)oxy]pyridin-2-yl}-2-methylpiperazin-1-yl]methyl}-1-(2-methoxyethyl)-1H-benzimidazole-6-carboxylic acid]	150	97	6.1	89			
COCCn1c(CN2CCN(c3cccc(OCc4ccc(Cl)cc4F)n3)C[C@@H]2C)nc2ccc(C(=O)O)cc21 [Example 12A-10, 2-{[(2S)-4-{6-[(4-chloro-2-fluorobenzyl)oxy]pyridin-2-yl}-2-methylpiperazin-1-yl]methyl]-1-(2-methoxyethyl)-1H-benzimidazole-6-carboxylic acid]	170	96	6.9	78			

Continued by falling EC50 (human GLP-1R [1]), values first:

EC50 (human GLP-1R [1]) [nM]	Emax (human GLP-1R [1]; [3]) [%]	EC50 (human GLP-1R [2]; read-out: Assay 1 EC50) [nM]	Emax (human GLP-1R [2]; [4]) [%]	Assay 2 Emax (%) (human GLP-1R [1]; [3])	Assay 1 Emax (%) (human GLP-1R [2]; CHO GLP-1R Clone H6, relative to saturating concentration of full agonist GLP-1 (1 μM), arithmetic mean)	EC50 (human GLP-1R [2]; Assay 1 EC50 (nM)) [nM]	SMILES
3500	95	110	70				CN1CCC[C@@H]1Cn1c(CN2CCC(c3cccc(OCc4ccc(Cl)cc4F)n3)CC2)nc2ccc(C(=O)O)cc21 [Example 11A-34, 2-[(4-{6-[(4-chloro-2-fluorobenzyl)oxy]pyridin-2-yl}piperidin-1-yl)methyl]-1-{[(2R)-1-methylpyrrolidin-2-yl]methyl}-1H-benzimidazole-6-carboxylic acid]
2100	100		81			54	COCCn1c(CN2CCN(c3cccc(OCc4ccc(Cl)cc4F)n3)C[C@H]2C)nc2ccc(C(=O)O)cc21 [Example 12A-11, 2-{[(2R)-4-{6-[(4-chloro-2-fluorobenzyl)oxy]pyridin-2-yl}-2-methylpiperazin-1-yl]methyl}-1-(2-methoxyethyl)-1H-benzimidazole-6-carboxylic acid]
2000	82	63	78				O=C(O)c1ccc2nc(CN3CCC(c4cccc(OCc5ccc(Cl)cc5F)n4)CC3)n(C[C@H]3CCCO3)c2c1 [Example 11A-68, 2-[(4-{6-[(4-chloro-2-fluorobenzyl)oxy]pyridin-2-yl}piperidin-1-yl)methyl]-1-[(2R)-tetrahydrofuran-2-ylmethyl]-1H-benzimidazole-6-carboxylic acid]
570	93	30	73				Cn1cnnc1Cn1c(CN2CCC(c3cccc(OCc4ccc(Cl)cc4F)n3)CC2)nc2ccc(C(=O)O)cc21 [Example 11A-71, 2-[(4-{6-[(4-chloro-2-fluorobenzyl)oxy]pyridin-2-yl}piperidin-1-yl)methyl]-1-[(4-methyl-4H-1,2,4-triazol-3-yl)methyl]-1H-benzimidazole-6-carboxylic acid]
540		21		80	79		COCCn1c(CN2CCN(c3cccc(OCc4ccc(Cl)cc4F)n3)C[C@@H]2CO)nc2ccc(C(=O)O)cc21 [Example 12A-09]
41	77	5	82				Cn1nncc1Cn1c(CN2CCC(c3cccc(OCc4ccc(Cl)cc4F)n3)CC2)nc2ccc(C(=O)O)cc21 [Example 11A-72, 2-[(4-{6-[(4-chloro-2-fluorobenzyl)oxy]pyridin-2-yl}piperidin-1-yl)methyl]-1-[(1-methyl-1H-1,2,3-triazol-5-yl]methyl]-1H-benzimidazole-6-carboxylic acid]
10	89	0.7	86				Cn1cncc1Cn1c(CN2CCC(c3cccc(OCc4ccc(Cl)cc4F)n3)CC2)nc2ccc(C(=O)O)cc21 [Example 11A-70, 2-[(4-{6-[(4-chloro-2-fluorobenzyl)oxy]pyridin-2-yl}piperidin-1-yl)methyl]-1-[(1-methyl-1H-imidazol-5-yl)methyl]-1H-benzimidazole-6-carboxylic acid]
